Results from the Biogen ADME set (Fang et al. 2023).
In brackets after ≈: the same amount, converted by molar mass.

Conditions: for aqueous solubility: pH 6.8

Which results are given for O=C1CN(c2ccc(Nc3nccc(C(F)(F)F)n3)cn2)CCN1?
MDR1-MDCK efflux ratio: 2.94; fraction unbound, human plasma: 0.35; fraction unbound, rat plasma: 0.271; intrinsic clearance, human liver microsomes: ≤ 4.74 mL/min/kg; intrinsic clearance, rat liver microsomes: 24.4 mL/min/kg; aqueous solubility: 51.3 µg/mL (≈ 152 µM)

With O=C(NCC1(Sc2ccccc2)CC1)c1ccc(=O)[nH]n1 as the compound, how does the intrinsic clearance, human liver microsomes read?
The intrinsic clearance, human liver microsomes was 7.88 mL/min/kg.

And the intrinsic clearance, rat liver microsomes?
The intrinsic clearance, rat liver microsomes was 567 mL/min/kg.

With O=C(Nc1cccc(-c2cnco2)c1)C1(c2cccc(F)c2)CCOCC1 as the compound, how does the MDR1-MDCK efflux ratio read?
The MDR1-MDCK efflux ratio was 2.37.

And the intrinsic clearance, human liver microsomes?
Its intrinsic clearance, human liver microsomes is 65.8 mL/min/kg.

What about the intrinsic clearance, rat liver microsomes of the same compound?
Its intrinsic clearance, rat liver microsomes is 257 mL/min/kg.

What about the aqueous solubility of the same compound?
Its aqueous solubility is 42.3 µg/mL (≈ 115 µM).

Which aqueous solubility does the source give for CCOC(=O)N1CCC(C(=O)Nc2cccc(C)c2)CC1 here?
Its aqueous solubility is 56.3 µg/mL (≈ 194 µM).

Which intrinsic clearance, human liver microsomes does the source give for O=C(c1nccc2ccccc12)N1CCC(COc2ccccn2)CC1 here?
Its intrinsic clearance, human liver microsomes is 42.1 mL/min/kg.

What about the intrinsic clearance, rat liver microsomes of the same compound?
The intrinsic clearance, rat liver microsomes was 5410 mL/min/kg.

With CCOCC(=O)NCc1cc(C2CC2)n(C2CCCC2)n1 as the compound, how does the MDR1-MDCK efflux ratio read?
The MDR1-MDCK efflux ratio was 0.768.

What about the intrinsic clearance, human liver microsomes of the same compound?
The intrinsic clearance, human liver microsomes was 21.9 mL/min/kg.

What about the intrinsic clearance, rat liver microsomes of the same compound?
Its intrinsic clearance, rat liver microsomes is 264 mL/min/kg.

And the aqueous solubility?
Its aqueous solubility is 37.9 µg/mL (≈ 130 µM).

What does the source list for Clc1cc2c(NC3CCCC3)nnc(-c3ccncc3)c2cc1Cl?
MDR1-MDCK efflux ratio: 0.729; aqueous solubility: 0.19 µg/mL (≈ 0.529 µM)

For Cc1noc(C2CCN(C(=O)C3(c4cccc(F)c4)CCC3)CC2)n1, which MDR1-MDCK efflux ratio is on record?
The MDR1-MDCK efflux ratio was 0.861.

And the intrinsic clearance, human liver microsomes?
Its intrinsic clearance, human liver microsomes is 54.1 mL/min/kg.

And the intrinsic clearance, rat liver microsomes?
The intrinsic clearance, rat liver microsomes was 2450 mL/min/kg.

And the aqueous solubility?
Its aqueous solubility is 76.3 µg/mL (≈ 222 µM).

With Cc1ccc(-c2cnn3c(O)cc(Cn4cccn4)nc23)cc1 as the compound, how does the MDR1-MDCK efflux ratio read?
The MDR1-MDCK efflux ratio was 2.46.

And the intrinsic clearance, human liver microsomes?
Its intrinsic clearance, human liver microsomes is 18.3 mL/min/kg.

And the intrinsic clearance, rat liver microsomes?
The intrinsic clearance, rat liver microsomes was 225 mL/min/kg.

Which intrinsic clearance, human liver microsomes does the source give for O=c1[nH]c2ccccc2n1C1CCN(Cc2csc(COc3ccc(F)cc3)n2)CC1 here?
The intrinsic clearance, human liver microsomes was 209 mL/min/kg.

What about the intrinsic clearance, rat liver microsomes of the same compound?
The intrinsic clearance, rat liver microsomes was 1090 mL/min/kg.

For COCCCNc1ncc(-c2cc(C)no2)c(C(C)C)n1, which MDR1-MDCK efflux ratio is on record?
Its MDR1-MDCK efflux ratio is 0.439.

And the intrinsic clearance, human liver microsomes?
The intrinsic clearance, human liver microsomes was 33.4 mL/min/kg.

And the intrinsic clearance, rat liver microsomes?
Its intrinsic clearance, rat liver microsomes is 5960 mL/min/kg.

With CN1CCC(O)(CNC(=O)C2CCCCCC2)CC1 as the compound, how does the MDR1-MDCK efflux ratio read?
The MDR1-MDCK efflux ratio was 11.2.

And the intrinsic clearance, human liver microsomes?
Its intrinsic clearance, human liver microsomes is no more than 4.74 mL/min/kg.

What about the intrinsic clearance, rat liver microsomes of the same compound?
Its intrinsic clearance, rat liver microsomes is 458 mL/min/kg.

Which MDR1-MDCK efflux ratio does the source give for CCN(C(=O)CN1CCNC(=O)C1)c1ccc(F)cc1 here?
Its MDR1-MDCK efflux ratio is 49.4.

What about the intrinsic clearance, human liver microsomes of the same compound?
The intrinsic clearance, human liver microsomes was no more than 4.74 mL/min/kg.

What about the intrinsic clearance, rat liver microsomes of the same compound?
Its intrinsic clearance, rat liver microsomes is no more than 10.7 mL/min/kg.

What about the aqueous solubility of the same compound?
Its aqueous solubility is 34.8 µg/mL (≈ 125 µM).

With CC(=O)N1c2ccccc2C[C@H]1C(=O)O as the compound, how does the intrinsic clearance, human liver microsomes read?
The intrinsic clearance, human liver microsomes was no more than 4.74 mL/min/kg.

What about the intrinsic clearance, rat liver microsomes of the same compound?
Its intrinsic clearance, rat liver microsomes is no more than 10.7 mL/min/kg.

And the aqueous solubility?
Its aqueous solubility is 33.6 µg/mL (≈ 164 µM).

What does the source list for Cc1ccc(-c2noc3nc(C)cc(C(=O)O)c23)cc1?
MDR1-MDCK efflux ratio: 2.93; intrinsic clearance, human liver microsomes: ≤ 4.74 mL/min/kg; intrinsic clearance, rat liver microsomes: ≤ 10.7 mL/min/kg; aqueous solubility: 74.3 µg/mL (≈ 277 µM)

For CCOc1ccc2c(c1)cc(CN1CCSCC1)c1nn(C)c(=O)n12, which intrinsic clearance, human liver microsomes is on record?
Its intrinsic clearance, human liver microsomes is 88.1 mL/min/kg.

And the intrinsic clearance, rat liver microsomes?
Its intrinsic clearance, rat liver microsomes is 604 mL/min/kg.

Which results are given for O=C(N[C@H](CO)CC1CCCCC1)c1cccc(-c2cnccn2)c1?
intrinsic clearance, human liver microsomes: 198 mL/min/kg; intrinsic clearance, rat liver microsomes: 4260 mL/min/kg

For Cc1nn(-c2ccc(F)cc2)c(Cl)c1C(=O)N1CCC(S(=O)(=O)C(C)C)CC1, which MDR1-MDCK efflux ratio is on record?
The MDR1-MDCK efflux ratio was 14.6.

And the intrinsic clearance, human liver microsomes?
The intrinsic clearance, human liver microsomes was no more than 4.74 mL/min/kg.

What about the intrinsic clearance, rat liver microsomes of the same compound?
The intrinsic clearance, rat liver microsomes was 14.2 mL/min/kg.

What about the aqueous solubility of the same compound?
Its aqueous solubility is 67.3 µg/mL (≈ 157 µM).

With O=C1NC2(CCCCC2)C(=O)N1Cc1csc(-c2ccccc2)n1 as the compound, how does the MDR1-MDCK efflux ratio read?
Its MDR1-MDCK efflux ratio is 1.15.

What about the intrinsic clearance, human liver microsomes of the same compound?
The intrinsic clearance, human liver microsomes was 23.7 mL/min/kg.

And the intrinsic clearance, rat liver microsomes?
The intrinsic clearance, rat liver microsomes was 862 mL/min/kg.

Which MDR1-MDCK efflux ratio does the source give for Cc1cccc2sc(NC(=O)C(C)(C)C)nc12 here?
The MDR1-MDCK efflux ratio was 0.352.

And the intrinsic clearance, human liver microsomes?
The intrinsic clearance, human liver microsomes was 36.5 mL/min/kg.

What about the intrinsic clearance, rat liver microsomes of the same compound?
The intrinsic clearance, rat liver microsomes was 207 mL/min/kg.

And the aqueous solubility?
Its aqueous solubility is 22.6 µg/mL (≈ 91.1 µM).

For COc1ccc(-c2nnc3ccc(C(F)(F)F)cn23)cc1OC(C)C, which MDR1-MDCK efflux ratio is on record?
The MDR1-MDCK efflux ratio was 1.11.

What about the intrinsic clearance, human liver microsomes of the same compound?
Its intrinsic clearance, human liver microsomes is 31.2 mL/min/kg.

What about the intrinsic clearance, rat liver microsomes of the same compound?
Its intrinsic clearance, rat liver microsomes is 132 mL/min/kg.

What about the aqueous solubility of the same compound?
The aqueous solubility was 22.9 µg/mL (≈ 65.2 µM).

For Cc1cc(Br)ccc1CN(C)C(=O)CO, which MDR1-MDCK efflux ratio is on record?
Its MDR1-MDCK efflux ratio is 0.75.

And the intrinsic clearance, human liver microsomes?
The intrinsic clearance, human liver microsomes was no more than 4.74 mL/min/kg.

And the intrinsic clearance, rat liver microsomes?
The intrinsic clearance, rat liver microsomes was 28.6 mL/min/kg.

Which intrinsic clearance, human liver microsomes does the source give for CCC(C)(C)c1ccc(Oc2ccc(NC3=NN(c4ccccc4)C(=O)C3)cc2)cc1 here?
Its intrinsic clearance, human liver microsomes is 7.61 mL/min/kg.

And the intrinsic clearance, rat liver microsomes?
The intrinsic clearance, rat liver microsomes was 17.1 mL/min/kg.

Which intrinsic clearance, human liver microsomes does the source give for CC(C)C[C@H](CO)Nc1nc(S[C@@H](C)c2ccccc2)nc2nc(N)sc12 here?
Its intrinsic clearance, human liver microsomes is 40.2 mL/min/kg.

And the intrinsic clearance, rat liver microsomes?
Its intrinsic clearance, rat liver microsomes is 329 mL/min/kg.

With Cn1c(NC(=O)C2CC2c2ccc(Cl)cc2)nc2ccccc21 (stereo not given) as the compound, how does the aqueous solubility read?
Its aqueous solubility is 0.3 µg/mL (≈ 0.921 µM).

With CC(C)(C)c1cc(NS(=O)(=O)c2cccc(F)c2)cc(C(C)(C)C)c1 as the compound, how does the intrinsic clearance, human liver microsomes read?
The intrinsic clearance, human liver microsomes was 10 mL/min/kg.

And the intrinsic clearance, rat liver microsomes?
The intrinsic clearance, rat liver microsomes was 306 mL/min/kg.

Which intrinsic clearance, human liver microsomes does the source give for N#Cc1ccc(-c2cccc(CN)c2)s1 here?
The intrinsic clearance, human liver microsomes was 356 mL/min/kg.

And the intrinsic clearance, rat liver microsomes?
The intrinsic clearance, rat liver microsomes was 557 mL/min/kg.

For Cc1ccnc(-n2nccc2NC(=O)NC2(C)CCC2)c1, which MDR1-MDCK efflux ratio is on record?
Its MDR1-MDCK efflux ratio is 0.579.

What about the intrinsic clearance, human liver microsomes of the same compound?
The intrinsic clearance, human liver microsomes was 72.8 mL/min/kg.

What about the intrinsic clearance, rat liver microsomes of the same compound?
The intrinsic clearance, rat liver microsomes was 931 mL/min/kg.

With Fc1ccc(CCNc2ncnc3ncccc23)cc1 as the compound, how does the MDR1-MDCK efflux ratio read?
The MDR1-MDCK efflux ratio was 2.35.

And the intrinsic clearance, human liver microsomes?
Its intrinsic clearance, human liver microsomes is 13.3 mL/min/kg.

And the intrinsic clearance, rat liver microsomes?
Its intrinsic clearance, rat liver microsomes is 80.5 mL/min/kg.

With Cc1noc(C)c1CCC(=O)Nc1cccnc1 as the compound, how does the MDR1-MDCK efflux ratio read?
Its MDR1-MDCK efflux ratio is 7.24.

What about the intrinsic clearance, human liver microsomes of the same compound?
Its intrinsic clearance, human liver microsomes is no more than 4.74 mL/min/kg.

And the intrinsic clearance, rat liver microsomes?
Its intrinsic clearance, rat liver microsomes is 32.1 mL/min/kg.

What about the aqueous solubility of the same compound?
The aqueous solubility was 55.7 µg/mL (≈ 227 µM).

For CN(CCNC(=O)NC1CCOCC1)C1CCCC1, which MDR1-MDCK efflux ratio is on record?
The MDR1-MDCK efflux ratio was 18.2.

What about the intrinsic clearance, human liver microsomes of the same compound?
The intrinsic clearance, human liver microsomes was no more than 4.74 mL/min/kg.

What about the intrinsic clearance, rat liver microsomes of the same compound?
Its intrinsic clearance, rat liver microsomes is 184 mL/min/kg.

With CC1(C)CN(CC(=O)NCC#N)c2cccc(Cl)c21 as the compound, how does the MDR1-MDCK efflux ratio read?
Its MDR1-MDCK efflux ratio is 0.597.

What about the intrinsic clearance, human liver microsomes of the same compound?
The intrinsic clearance, human liver microsomes was 21.2 mL/min/kg.

And the intrinsic clearance, rat liver microsomes?
Its intrinsic clearance, rat liver microsomes is 444 mL/min/kg.

What about the aqueous solubility of the same compound?
The aqueous solubility was 28.5 µg/mL (≈ 103 µM).
